Measured values published in patent US20250250559A1, “METHOD TO ANALYZE AND OPTIMIZE GENE EDITING MODULES AND DELIVERY APPROACHES” (Hoffmann-La Roche Inc., priority 2016, published 2025).
Where “and” joins values, the source holds several entries; their conditions need not be identical. Equal entries are not always repeated.

Key:
Assay type in all cases: cell-based, human
DPH1 gene [1] = assay: PM resistant colony count after DPH1 gene editing (PAC cassette integration); details: for # of PM resistant colonies (40,000 seeded cells) / # of PM resistant colonies (40,000 seeded cells) (unheaded second sub-column: mean): DPH1 (gRNA length), TF eff. = 31%; for # of PM resistant colonies (40,000 seeded cells): MCF7, individual samples A-D; for integration efficacy in dependence on gRNA length: PMr colonies
Experimental: (§1) MCF7 cells (Brooks, et al. 1973) were originally obtained from ATCC (subsequently propagated in an in-house cell bank) and maintained in RPMI […] medium supplemented with 10% FCS, 2 mM L-Glutamine and penicillin/streptomycin at 37° C. and 85% humidity. For transfection of plasmids harboring gene-editing modules, 3,000,000 cells were seeded in a 10 cm diameter culture dish and cultivated at 37° C. and humidified 5% CO2. 24 h after seeding, cells were transfected with 20 μg total DNA using JetPEI (Polyplus) according to the manufacturer's protocol but with an N/P ratio of 6:1. Transfection efficiency was determined after 24 h by flow cytometry (FACS Calibur, BD biosciences) of cells that were transfected with a modified eGFP expression plasmid (Zhang, et al. 1996).
(§2) Plasmids encoding CRISPR/Cas9 gene-editing entities (i.e. knock-out and integration systems) against Dph1 (gRNA target sequence: […] (SEQ ID NO: 01) derived from RefSeq: NM_001383) and Dph2 (gRNA target sequence: […] (SEQ ID NO: 02) derived from RefSeq: NM_001039589, NM_001384), and scrambled control (gRNA sequence: […] (SEQ ID NO: 03)) were obtained from OriGene. This system comprises one plasmid expressing a ˜100 nt gRNA under control of a U6 promoter as well as Cas9 nuclease under control of a CMV promoter and a Donor plasmid with a promoter-less GFP/PM expression cassette flanked by homologous arms to the target gene (Dph1 or Dph2). Additional Dph1 gRNA sequence variants of different sizes (OriGene) […]
MCF7 cells which have all chromosomal copies of DPH1 or DPH2 inactivated are resistant to diphtheria toxin (Stahl, et al. 2015). Thus, occurrence and frequency of toxin resistant cells/colonies upon CRISPR/Cas inflicted gene inactivation provides a measure for efficiency of inactivation of all gene copies. Therefore, MCF/cells were transfected as described in Example 1 with (i) a GFP expression plasmid as transfection control, (ii) the CRISPR/Cas9 Dph1 or Dph2 knock-out/integration system and (iii) knock-out/integration entities containing a scrambled gRNA to determine Cas9 independent integration frequencies. After determination of transfection efficiency, cells were seeded in 6-well plates. […] RPMI medium was exchanged by RPMI medium containing DT or PM or both toxins 3 days after cell seeding. Exchange of medium was repeated every 2-3 days until all dead cells were removed from the plates and actively growing colonies could be detected via microscopic inspection. Thereafter (between day 12 and day 14 after start of toxin exposure), cells were washed 3 times with PBS and subsequently stained with ice cold methylene blue (0.2% in 50% EtOH). Methylene blue solution was subsequently removed and the plates were carefully washed under running water. Finally, cell colonies were counted under the microscope with a 5 mm grid foil.
CRISPR/Cas module for targeted integration contains a puromycin (PM) resistance gene expression cassette without promoter to avoid transient expression. Thus, detection of integration of recombinant sequences into the genome was detected by determining sensitivity of cells towards PM. A concentration of […] PM (which quantitatively eliminates wildtype MCF7 cells) was applied to select MCF7 cells with stably integrated expression cassettes. PM-resistant colonies selected with the same procedure as described above for the DT selection and visualized and quantified (between 12 and 14 days after start of selection) in the same manner as described above for toxin resistant colonies. Number of PM resistant colonies obtained with non-target guide sequences (scrambled gRNA, FIG. 1) reflect the nonspecific integration background. Increase in colonies (above nonspecific background) obtained with target-gene gRNAs which are PM-resistant but toxin sensitive reflect integration into just one target allele, leaving the other dph1 or dph2 allele unaffected. […]

DPH1 gene [2] = assay: DT resistant colony count after DPH1 gene editing (homozygous gene inactivation); details: for # of DT resistant colonies (20,000 seeded cells) / # of DT resistant colonies (20,000 seeded cells) (unheaded second sub-column: mean): DPH1 (gRNA length), TF eff. = 31%; for # of DT resistant colonies (20,000 seeded cells): MCF7, individual samples A-D
Experimental: as §1, §2
MCF7 cells which have all chromosomal copies of DPH1 or DPH2 inactivated are resistant to diphtheria toxin (Stahl, et al. 2015). Thus, occurrence and frequency of toxin resistant cells/colonies upon CRISPR/Cas inflicted gene inactivation provides a measure for efficiency of inactivation of all gene copies. Therefore, MCF/cells were transfected as described in Example 1 with (i) a GFP expression plasmid as transfection control, (ii) the CRISPR/Cas9 Dph1 or Dph2 knock-out/integration system and (iii) knock-out/integration entities containing a scrambled gRNA to determine Cas9 independent integration frequencies. After determination of transfection efficiency, cells were seeded in 6-well plates. For quantification of homozygous knock-out events by DT 20000 cells were seeded and for quantification of integration events by PM or both events 40000 cells were seeded. RPMI medium was exchanged by RPMI medium containing DT or PM or both toxins 3 days after cell seeding. Exchange of medium was repeated every 2-3 days until all dead cells were removed from the plates and actively growing colonies could be detected via microscopic inspection. Thereafter (between day 12 and day 14 after start of toxin exposure), cells were washed 3 times with PBS and subsequently stained with ice cold methylene blue (0.2% in 50% EtOH). Methylene blue solution was subsequently removed and the plates were carefully washed under running water. Finally, cell colonies were counted under the microscope with a 5 mm grid foil.
MCF7 cells which have all chromosomal copies of DPH1 inactivated are DT resistant. Thus, occurrence and frequency of DTr colonies upon ZFN inflicted gene inactivation and/or cassette integration provides a measure for efficacy of inactivation of all gene copies. The ZFN recognition sequence ([…], cleavage site, SEQ ID NO: 10) are derived from NM_001383.3 (DPH1-wt) and were obtained from Sigma Aldrich. A PAC integration cassette for this position was obtained from OriGene. MCF7 cells were transfected as described above with (i) a GFP expression plasmid, (ii) the plasmid encoding DPH1-targeting ZFN and (iii) the DPH1-targeting PAC-integration cassette. After determination of transfection efficiency, cells were seeded in 6-well plates. For quantification of homozygous knock-out events (DTr) 20,000 cells were seeded, 40,000 cells for quantification of integration events (PMr) or double resistances. […]

DPH1 gene [3] = assay: DT + PM double resistant colony count after DPH1 gene editing (integration with inactivation); details: DPH1 (gRNA length), TF eff. = 31%; for # of DT + PM resistant colonies (40,000 seeded cells): MCF7, individual samples A-D
Experimental: MCF7 cells (Brooks, et al. 1973) were originally obtained from ATCC (subsequently propagated in an in-house cell bank) and maintained in RPMI 1641 medium supplemented with 10% FCS, 2 mM L-Glutamine and penicillin/streptomycin at 37° C. and 85% humidity. For transfection of plasmids harboring gene-editing modules, 3,000,000 cells were seeded in a 10 cm diameter culture dish and cultivated at 37° C. and humidified 5% CO2. 24 h after seeding, cells were transfected with 20 μg total DNA using JetPEI (Polyplus) according to the manufacturer's protocol but with an N/P ratio of 6:1. Transfection efficiency was determined after 24 h by flow cytometry (FACS Calibur, BD biosciences) of cells that were transfected with a modified eGFP expression plasmid (Zhang, et al. 1996).
CRISPR/Cas module for targeted integration contains a puromycin (PM) resistance gene expression cassette without promoter to avoid transient expression. Thus, detection of integration of recombinant sequences into the genome was detected by determining sensitivity of cells towards PM. A concentration of 500 ng/μL PM (which quantitatively eliminates wildtype MCF7 cells) was applied to select MCF7 cells with stably integrated expression cassettes. PM-resistant colonies selected with the same procedure as described above for the DT selection and visualized and quantified (between 12 and 14 days after start of selection) in the same manner as described above for toxin resistant colonies. Number of PM resistant colonies obtained with non-target guide sequences (scrambled gRNA, FIG. 1) reflect the nonspecific integration background. Increase in colonies (above nonspecific background) obtained with target-gene gRNAs which are PM-resistant but toxin sensitive reflect integration into just one target allele, leaving the other dph1 or dph2 allele unaffected. PM resistant colonies that are also DT resistant have the expression cassette integrated into at least target allele and the other allele either inactivated or inactivated accompanied by yet another integration event.

[4] = listed as 16 mer Dph1 CRISPR Cas9 gRNA
[5] = listed as 26 mer Dph1 CRISPR Cas9 gRNA
[6] = listed as 26 mer Dph1 CRISPR/Cas9 gRNA
[7] = listed as 24 mer Dph1 CRISPR Cas9 gRNA
[8] = listed as 22 mer Dph1 CRISPR Cas9 gRNA
[9] = listed as 18 mer Dph1 CRISPR Cas9 gRNA

| Substance | # of PM resistant colonies (40,000 seeded cells) (DPH1 gene [1]) | # of PM resistant colonies (40,000 seeded cells) (unheaded second sub-column: mean) (DPH1 gene [1]) | integration efficacy in dependence on gRNA length (DPH1 gene [1]) | # of DT resistant colonies (20,000 seeded cells) (DPH1 gene [2]) | # of DT resistant colonies (20,000 seeded cells) (unheaded second sub-column: mean) (DPH1 gene [2]) | # of DT + PM resistant colonies (40,000 seeded cells) (DPH1 gene [3]) | # of DT + PM resistant colonies (40,000 seeded cells) (unheaded second sub-column: mean) (DPH1 gene [3]) | further results |
| --- | --- | --- | --- | --- | --- | --- | --- | --- |
| 16 mer SpCas9 Dph1 gRNA: Dph1 gRNA sequence variant GCGGCCGAGACGGCCC with SpCas9 (chemistry not given here) | 21 and 26 (2×) and 25 | 25 | Targeted integration clearly above background was observed | 275 and 298 and 292 and 271 | 284 | 7 and 9 (2×) and 10 | 8 | # of PM resistant colonies (40,000 seeded cells) (DPH1 gene [1]; [4]): 21 and 26 (2×) and 25; # of DT resistant colonies (20,000 seeded cells) (DPH1 gene [2]; [4]): 275 and 298 and 292 and 271; # of DT + PM resistant colonies (40,000 seeded cells) (DPH1 gene [3]; [4]): 7 and 9 (2×) and 10 |
| 14 mer SpCa9 Dph1 gRNA: Dph1 gRNA sequence variant GGCCGAGACGGCCC with SpCas9 (listed as DNA, chemistry not given here) | 6 and 10 and 8 and 9 | 8 | not exceeding scrambled control background levels | 0 | 0 | 0 | 0 | # of PM resistant colonies (40,000 seeded cells) (DPH1 gene [1]; listed as 14 mer Dph1 CRISPR Cas9 gRNA): 6 and 10 and 8 and 9; DPH1 inactivation efficacy in dependence on gRNA length (DPH1 gene [2]; DTr colonies): below detection levels |
| 26 mer SpCas9 Dph1 gRNA: Dph1 gRNA sequence variant GCGGAGCAGGGCGGCCGAGACGGCCC with SpCas9 (chemistry not given here) | 12 (2×) and 11 and 9 | 11 | Targeted integration clearly above background was observed | 161 and 155 and 176 and 187 | 170 | 0 (2×) and 1 (2×) | 1 | # of PM resistant colonies (40,000 seeded cells) (DPH1 gene [1]; [5]): 12 (2×) and 11; # of PM resistant colonies (40,000 seeded cells) (DPH1 gene [1]; [6]): 9; # of DT resistant colonies (20,000 seeded cells) (DPH1 gene [2]; [5]): 161 and 155 and 176; # of DT resistant colonies (20,000 seeded cells) (DPH1 gene [2]; [6]): 187; # of DT + PM resistant colonies (40,000 seeded cells) (DPH1 gene [3]; [5]): 0 (2×) and 1; # of DT + PM resistant colonies (40,000 seeded cells) (DPH1 gene [3]; [6]): 1 |
| 24 mer SpCas9 Dph1 gRNA: Dph1 gRNA sequence variant GGAGCAGGGCGGCCGAGACGGCCC with SpCas9 (chemistry not given here) | 13 and 12 and 11 and 15 | 13 | Targeted integration clearly above background was observed | 237 and 252 and 228 and 211 | 232 | 2 and 4 and 3 (2×) | 3 | # of PM resistant colonies (40,000 seeded cells) (DPH1 gene [1]; [7]): 13 and 12 and 11 and 15; # of DT resistant colonies (20,000 seeded cells) (DPH1 gene [2]; [7]): 237 and 252 and 228 and 211; # of DT + PM resistant colonies (40,000 seeded cells) (DPH1 gene [3]; [7]): 2 and 4 and 3 (2×) |
| 22 mer SpCas9 Dph1 gRNA: Dph1 gRNA sequence variant AGCAGGGCGGCCGAGACGGCCC with SpCas9 (chemistry not given here) | 14 and 12 and 11 and 15 | 13 | Targeted integration clearly above background was observed | 278 and 292 and 297 and 267 | 284 | 6 and 5 (2×) and 4 | 5 | # of PM resistant colonies (40,000 seeded cells) (DPH1 gene [1]; [8]): 14 and 12 and 11 and 15; # of DT resistant colonies (20,000 seeded cells) (DPH1 gene [2]; [8]): 278 and 292 and 297 and 267; # of DT + PM resistant colonies (40,000 seeded cells) (DPH1 gene [3]; [8]): 6 and 5 (2×) and 4 |
| 18 mer SpCas9 Dph1 gRNA: Dph1 gRNA sequence variant GGGCGGCCGAGACGGCCC with SpCas9 (chemistry not given here) | 19 and 25 and 27 and 22 | 23 | Targeted integration clearly above background was observed | 284 and 299 and 321 and 324 | 307 | 10 and 12 and 7 and 11 | 10 | # of PM resistant colonies (40,000 seeded cells) (DPH1 gene [1]; [9]): 19 and 25 and 27 and 22; # of DT resistant colonies (20,000 seeded cells) (DPH1 gene [2]; [9]): 284 and 299 and 321 and 324; # of DT + PM resistant colonies (40,000 seeded cells) (DPH1 gene [3]; [9]): 10 and 12 and 7 and 11 |
